Structures can show the parent of a compound that is named as a salt.
Each molecule was assayed against HSET full length protein (Homo sapiens (Human), UniProt Q9BW19) (assay: HSET ADP-Glo Assay S - 3 μM ATP). Details: 5 nM HSET, 70 μg/mL microtubule, 80 min at rt, read-out: COMBINED HSET ADP GLO IC50.
Format: biochemical
Outline: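 Full-length human HSET (5 nM) with paclitaxel-stabilised bovine brain microtubules (70 μg/mL) in HEPES pH 6.8 buffer was preincubated 10 min with compound. ATP at 3 μM started the reaction, which ran 80 min at rt. ADP formed was measured by ADP-Glo luminescence.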

Sequence of HSET full length protein (Q9BW19 whole entry): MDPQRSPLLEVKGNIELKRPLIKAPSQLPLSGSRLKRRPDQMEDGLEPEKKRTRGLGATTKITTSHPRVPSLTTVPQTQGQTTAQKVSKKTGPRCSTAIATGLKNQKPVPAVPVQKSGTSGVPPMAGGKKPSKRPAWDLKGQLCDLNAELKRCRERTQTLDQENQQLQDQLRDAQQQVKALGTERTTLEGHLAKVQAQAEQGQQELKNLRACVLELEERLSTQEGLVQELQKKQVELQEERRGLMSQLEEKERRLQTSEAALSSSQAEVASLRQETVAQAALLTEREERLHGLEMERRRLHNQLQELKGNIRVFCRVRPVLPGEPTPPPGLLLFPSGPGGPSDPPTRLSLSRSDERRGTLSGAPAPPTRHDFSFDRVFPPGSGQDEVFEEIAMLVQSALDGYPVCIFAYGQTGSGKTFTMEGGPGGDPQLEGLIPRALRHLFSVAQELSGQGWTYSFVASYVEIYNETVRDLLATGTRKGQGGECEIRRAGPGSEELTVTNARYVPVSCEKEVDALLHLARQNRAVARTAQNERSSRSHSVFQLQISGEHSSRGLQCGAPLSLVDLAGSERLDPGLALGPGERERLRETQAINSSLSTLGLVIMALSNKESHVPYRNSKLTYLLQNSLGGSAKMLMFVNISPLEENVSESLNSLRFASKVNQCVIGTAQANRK

SMILES | IC50 [µM]
Cc1nc(NC(=O)C[C@H](CC#N)Nc2nccc3ccc(C#N)cc23)sc1C(=O)OC(C)C [Example 208, Propan-2-yl 2-[(3S)-4-cyano-3-[(7-cyanoisoquinolin-1-yl)amino]butan-amido]-4-methyl-1,3-thiazole-5-carboxylate] | 0.079
Cc1nc(NC(=O)C[C@@H](CC#N)Nc2nccc3ccc(C#N)cc23)sc1C(=O)OC(C)C [Example 209, Propan-2-yl 2-[(3R)-4-cyano-3-[(7-cyanoisoquinolin-1-yl)amino]butan-amido]-4-methyl-1,3-thiazole-5-carboxylate] | 4
Cc1nc(NC(=O)C[C@H](CC#N)Nc2nccc3ccc(-c4cnn(C)c4)cc23)sc1C(=O)OC(C)C [Example 210, Propan-2-yl 2-[(3S)-4-cyano-3-{[7-(1-methyl-1 H-pyrazol-4-yl)isoquinolin-1-yl]amino}butanamido]-4-methyl-1,3-thiazole-5-carboxylate] | 0.7
Cc1nc(NC(=O)C[C@H](CC#N)NC(=O)c2cccc(-c3cnn(C)c3)n2)sc1C(=O)OC(C)(C)C [Example 211, tert-Butyl 2-[(3S)-4-cyano-3-{[6-(1-methyl-1 H-pyrazol-4-yl)pyridin-2-yl]formamido}butanamido]-4-methyl-1,3-thiazole-5-carboxylate] | 1.3
Cc1nc(NC(=O)C[C@@H](CC#N)NC(=O)c2cccc(-c3cnn(C)c3)n2)sc1C(=O)OC(C)(C)C [Example 212, tert-Butyl 2-[(3R)-4-cyano-3-{[6-(1-methyl-1 H-pyrazol-4-yl)pyridin-2-yl]formamido}butanamido]-4-methyl-1,3-thiazole-5-carboxylate] | 3.35
Cc1nc(NC(=O)C[C@H](CC#N)NC(=O)c2cccc(-c3cnn(C)c3)n2)sc1C(=O)OC(C)C [Example 213, Propan-2-yl 2-[(3S)-4-cyano-3-{[6-(1-methyl-1 H-pyrazol-4-yl)pyridin-2-yl]formamido}butanamido]-4-methyl-1,3-thiazole-5-carboxylate] | 1.7
Cc1nc(NC(=O)C[C@@H](CC#N)NC(=O)c2cccc(-c3cnn(C)c3)n2)sc1C(=O)OC(C)C [Example 214] | 2.4
CCOC(=O)c1sc(NC(=O)CC(CC)NC(=O)c2cccc(-c3noc(C)n3)c2)nc1C (stereo not shown) [Example 215] | 0.084
COC(=O)c1sc(NC(=O)C[C@H](CC(=O)O)NC(=O)c2cccc(-c3noc(C)n3)c2)nc1C [Example 216, (3R)-4-{[5-(methoxycarbonyl)-4-methyl-1,3-thiazol-2-yl]carbamoyl}-3-{[3-(5-methyl-1,2,4-oxadiazol-3-yl)phenyl]formamido}butanoic acid] | 1.7
COC(=O)c1sc(N(C)C(=O)C[C@@H](CC(=O)O)NC(=O)c2cccc(-c3noc(C)n3)c2)nc1C [Example 217] | 7.3
CCN(c1nc(C)c(C(=O)OC(C)(C)C)s1)C(=O)[C@H]1C[C@@H](Nc2nccc3ccc(-c4noc(C)n4)cc23)C1 [Example 218, tert-Butyl 2-((1s,3s)-N-ethyl-3-((7-(5-methyl-1,2,4-oxadiazol-3-yl)isoquinolin-1-yl)amino)cyclobutanecarboxamido)-4-methylthiazole-5-carboxylate formate] | 0.041
CCOC(=O)c1sc(N(C)C(=O)CCNC(=O)c2cccc(-c3noc(C)n3)c2)nc1C [Example 219, Ethyl 4-methyl-2-(N-methyl-3-(3-(5-methyl-1,2,4-oxadiazol-3-yl)benzamido)propanamido)thiazole-5-carboxylate] | 0.089
CCCOC(=O)c1sc(C(=O)N[C@H]2C[C@@H](Nc3nccc4ccc(-c5noc(C)n5)cc34)C2)nc1C [Example 220, Propyl 4-methyl-2-(((1s,3s)-3-((7-(5-methyl-1,2,4-oxadiazol-3-yl)isoquinolin-1-yl)amino)cyclobutyl)carbamoyl)thiazole-5-carboxylate] | 0.122

— patent US20250084074A1, “SUBSTITUTED HETEROCYCLES AS HSET INHIBITORS” (MERCK PATENT GMBH, priority 2022, published 2025)
